The structures appear in SMILES notation.

This assay addresses T1, human chemokine receptor 2 isoform B (Homo sapiens, UniProt P41597).
T1 construct: host or cells: CHOK1-CCR2B-A5 (CHO-K1)
T1 sequence (P41597 1-360 isoform P41597-2): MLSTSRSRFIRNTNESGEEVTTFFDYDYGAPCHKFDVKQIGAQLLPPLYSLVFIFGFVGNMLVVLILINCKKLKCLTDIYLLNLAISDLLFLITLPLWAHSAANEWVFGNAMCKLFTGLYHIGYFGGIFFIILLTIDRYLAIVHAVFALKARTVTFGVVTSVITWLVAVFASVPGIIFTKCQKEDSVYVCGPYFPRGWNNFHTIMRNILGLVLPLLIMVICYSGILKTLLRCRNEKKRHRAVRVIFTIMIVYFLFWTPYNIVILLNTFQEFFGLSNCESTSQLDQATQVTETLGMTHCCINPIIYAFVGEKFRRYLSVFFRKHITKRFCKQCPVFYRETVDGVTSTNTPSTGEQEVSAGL
Briefly: Calcium mobilization assay. The following applies: CHOK1-CCR2B-A5 cells; antagonist activity against 20 nM MCP-1; FLIPR, Fluo-4. The format is cell-based. As to the method:
Calcium Mobilization Assay
CHOK1-CCR2B-A5 cells (from Euroscreen) stably overexpressing the human chemokine receptor 2 isoform B were cultured in Nutrient Hams F12 medium supplemented with 5% FBS, 100 U/ml penicillin, 100 μg/ml streptomycin, 400 μg/ml G418 and 5 μg/ml puromycin. For the assay cells were grown overnight in 384-well black clear flat bottom polystyrene plates (Costar) at 37° C. at 5% CO2. After washing with DMEM, 20 mM Hepes, 2.5 mM probenecid, 0.1% BSA (DMEM assay buffer) cells were loaded with 4 μM Fluo-4 in the same DMEM assay buffer for 2 hours at 30° C. Excess dye was removed and cells were washed with DMEM assay buffer. 384-well compound plates were prepared with DMEM assay buffer/0.5% DMSO with or without various concentrations of test compounds. Usually compounds were tested for agonist and antagonist activity.
Test compounds were added to the assay plate and agonist activity was monitored as fluorescence for 80 seconds with a FLIPR (488 nm excitation; 510-570 nm emission; Molecular Devices). After 20-30 min. of incubation at 30° C., 20 nM MCP-1 (R&D; Roche) was added and fluorescence was monitored again for 80 seconds. Increases in intracellular calcium are reported as maximum fluorescence after agonist exposure minus basal fluorescence before exposure. Antagonist activity is indicated as inhibitor concentration required for 50% inhibition of specific calcium increases.
Regarding `CCCCCCc1cccc(-c2nc(I)c(C(=O)N3CCCN(CCO)CC3)n2C)c1` [Example 3, [2-(3-Hexyl-phenyl)-5-iodo-3-methyl-3H-imidazol-4-yl]-[4-(2-hydroxy-ethyl)-[1,4]diazepan-1-yl]-methanone], the IC50 is 130 nM.

With `C#Cc1nc(-c2cccc(CCCCCC)c2)n(C)c1C(=O)N1CCC(N2CCCC2)CC1` [Example 13, [5-Ethynyl-2-(3-hexyl-phenyl)-3-methyl-3H-imidazol-4-yl]-(4-pyrrolidin-1-yl-piperidin-1-yl)-methanone], the half-maximal inhibitory concentration (IC50) came out at 35 nM.

As to `CCc1nc(-c2cccc(OC(F)(F)F)c2)n(C)c1C(=O)N1CCC(N2CCCC2)CC1` [Example 25, [5-Ethyl-3-methyl-2-(3-trifluoromethoxy-phenyl)-3H-imidazol-4-yl]-(4-pyrrolidin-1-yl-piperidin-1-yl)-methanone], the IC50 was 71 nM.

`Cn1c(-c2cccc(C(F)(F)F)c2)nc(I)c1C(=O)N1CCC(N2CCCC2)CC1` [Example 36, [5-Iodo-3-methyl-2-(3-trifluoromethyl-phenyl)-3H-imidazol-4-yl]-(4-pyrrolidin-1-yl-piperidin-1-yl)-methanone]: the half-inhibitory concentration (IC50) is 18 nM.

As for `Cn1c(-c2cccc(OC(F)(F)F)c2)nc(-c2cncnc2)c1C(=O)N1CCC(N2CCCC2)CC1` [Example 22, [3-Methyl-5-pyrimidin-5-yl-2-(3-trifluoromethoxy-phenyl)-3H-imidazol-4-yl]-(4-pyrrolidin-1-yl-piperidin-1-yl)-methanone], the 50% inhibitory concentration (IC50) was determined as 90 nM.

`Cn1c(-c2cccc(OC(F)(F)F)c2)nc(I)c1C(=O)N1CCC(N2CCC[C@@H]2CO)CC1` [Example 46, [4-((R)-2-Hydroxymethyl-pyrrolidin-1-yl)-piperidin-1-yl]-[5-iodo-3-methyl-2-(3-trifluoromethoxy-phenyl)-3H-imidazol-4-yl]-methanone]: the IC50 was 160 nM.

For the compound `CCCCCCc1cccc(-c2nc(I)c(C(=O)N3CCC(N(CC)CC)C3)n2C)c1` (racemic) [Example 1, (rac)-(3-Diethylamino-pyrrolidin-1-yl)-[2-(3-hexyl-phenyl)-5-iodo-3-methyl-3H-imidazol-4-yl]-methanone], the IC50 came to 120 nM.

Take `CCCCCCc1cccc(-c2nc(C#N)c(C(=O)N3CCC(N4CCCC4)CC3)n2C)c1` [Example 18, 2-(3-Hexyl-phenyl)-1-methyl-5-(4-pyrrolidin-1-yl-piperidine-1-carbonyl)-1H-imidazole-4-carbonitrile]: the concentration for half-maximal inhibition (IC50) was 75 nM.

(Values after patent US7935707B2, “Imidazole derivatives” (Hoffman-La Roche Inc., priority 2007, dated 2011).)
